Measured values taken from the supplement of paper PMC13207355.
Where a name gives a salt, the structure may show the parent alone.

Experiments:
Conditions in all cases: exposure time: 72 h
E34 [1] = patient-derived glioblastoma stem cells of proneural subtype; test: surviving fraction (nuclei count normalised to DMSO); higher = more cells surviving (less toxic)
E13 [2] = patient-derived glioblastoma stem cells of classical subtype; test: as above
E28 [3] = patient-derived glioblastoma stem cells of classical subtype; test: as above
E21 [4] = patient-derived glioblastoma stem cells of mesenchymal subtype; test: as above
E31 [5] = patient-derived glioblastoma stem cells of proneural subtype; test: as above
FT3469 [6] = normal neural stem cell line; test: as above
E57 [7] = patient-derived glioblastoma stem cells of mesenchymal subtype; test: as above
E34 [8] = test: phenotypic distance (Euclidean, principal components) from DMSO controls (arbitrary units); higher = stronger morphological change
E13 [9] = test: as above
E28 [10] = test: as above
E21 [11] = test: as above
E31 [12] = test: as above
FT3469 [13] = test: as above
E57 [14] = test: as above
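For phenotypic distance (Euclidean, principal components) from DMSO controls in this document: cell Painting imaging in 384-well plates, CellProfiler features reduced to at least 20 principal components, Euclidean distance versus same-plate DMSO vehicle wells (0.1% v/v), median over six images per well.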
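For surviving fraction (nuclei count normalised to DMSO) in this document: nuclei counted by high-content imaging of Hoechst-stained cells in laminin-coated 384-well plates, relative to 0.1% DMSO vehicle wells, with staurosporine as cell-death control.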

**Q.** How did the surviving fraction (E34 [1]; 4.1 nM) turn out when `CCC(C)(C)c1ccc(CC(C)CN2C[C@@H](C)O[C@@H](C)C2)cc1` (stereo partly drawn) [Amorolfine hydrochloride] was run?
**A.** Its surviving fraction is 0.983.

**Q.** What about the surviving fraction (E34 [1]; 12.3 nM) of the same molecule?
**A.** Its surviving fraction is 1.06.

**Q.** What about the surviving fraction (E34 [1]; 37 nM) of the same molecule?
**A.** The surviving fraction was 0.937.

**Q.** What about the surviving fraction (E34 [1]; 111.1 nM) of the same molecule?
**A.** Its surviving fraction is 1.06.

**Q.** What about the surviving fraction (E34 [1]; 333.3 nM) of the same molecule?
**A.** The surviving fraction was 1.09.

**Q.** And the surviving fraction (E34 [1]; 1000 nM)?
**A.** The surviving fraction was 1.14.

**Q.** And the surviving fraction (E34 [1]; 3000 nM)?
**A.** Its surviving fraction is 0.815.

**Q.** What about the surviving fraction (E13 [2]; 4.1 nM) of the same molecule?
**A.** Its surviving fraction is 0.95.

**Q.** And the surviving fraction (E13 [2]; 12.3 nM)?
**A.** Its surviving fraction is 0.95.

**Q.** And the surviving fraction (E13 [2]; 37 nM)?
**A.** Its surviving fraction is 1.

**Q.** And the surviving fraction (E13 [2]; 111.1 nM)?
**A.** The surviving fraction was 0.97.

**Q.** What about the surviving fraction (E13 [2]; 333.3 nM) of the same molecule?
**A.** The surviving fraction was 0.959.

**Q.** What about the surviving fraction (E13 [2]; 1000 nM) of the same molecule?
**A.** Its surviving fraction is 0.957.

**Q.** And the surviving fraction (E13 [2]; 3000 nM)?
**A.** Its surviving fraction is 0.638.

**Q.** What about the surviving fraction (E28 [3]; 4.1 nM) of the same molecule?
**A.** Its surviving fraction is 1.09.

**Q.** And the surviving fraction (E28 [3]; 12.3 nM)?
**A.** The surviving fraction was 0.852.

**Q.** And the surviving fraction (E28 [3]; 37 nM)?
**A.** Its surviving fraction is 1.21.

**Q.** What about the surviving fraction (E28 [3]; 111.1 nM) of the same molecule?
**A.** Its surviving fraction is 0.914.

**Q.** What about the surviving fraction (E28 [3]; 333.3 nM) of the same molecule?
**A.** The surviving fraction was 1.17.

**Q.** What about the surviving fraction (E28 [3]; 1000 nM) of the same molecule?
**A.** Its surviving fraction is 0.839.

**Q.** What about the surviving fraction (E28 [3]; 3000 nM) of the same molecule?
**A.** Its surviving fraction is 0.777.

**Q.** What about the surviving fraction (E21 [4]; 4.1 nM) of the same molecule?
**A.** Its surviving fraction is 0.94.

**Q.** What about the surviving fraction (E21 [4]; 12.3 nM) of the same molecule?
**A.** Its surviving fraction is 1.02.

**Q.** And the surviving fraction (E21 [4]; 37 nM)?
**A.** Its surviving fraction is 0.982.

**Q.** And the surviving fraction (E21 [4]; 111.1 nM)?
**A.** The surviving fraction was 1.09.

**Q.** And the surviving fraction (E21 [4]; 333.3 nM)?
**A.** Its surviving fraction is 1.03.

**Q.** What about the surviving fraction (E21 [4]; 1000 nM) of the same molecule?
**A.** The surviving fraction was 1.07.

**Q.** And the surviving fraction (E21 [4]; 3000 nM)?
**A.** The surviving fraction was 0.816.

**Q.** What about the surviving fraction (E31 [5]; 4.1 nM) of the same molecule?
**A.** Its surviving fraction is 0.939.

**Q.** And the surviving fraction (E31 [5]; 12.3 nM)?
**A.** Its surviving fraction is 0.934.

**Q.** And the surviving fraction (E31 [5]; 37 nM)?
**A.** The surviving fraction was 0.967.

**Q.** What about the surviving fraction (E31 [5]; 111.1 nM) of the same molecule?
**A.** Its surviving fraction is 0.983.

**Q.** And the surviving fraction (E31 [5]; 333.3 nM)?
**A.** Its surviving fraction is 1.05.

**Q.** And the surviving fraction (E31 [5]; 1000 nM)?
**A.** Its surviving fraction is 0.996.

**Q.** And the surviving fraction (E31 [5]; 3000 nM)?
**A.** Its surviving fraction is 0.804.

**Q.** And the surviving fraction (FT3469 [6]; 4.1 nM)?
**A.** Its surviving fraction is 1.01.

**Q.** What about the surviving fraction (FT3469 [6]; 12.3 nM) of the same molecule?
**A.** Its surviving fraction is 0.924.

**Q.** And the surviving fraction (FT3469 [6]; 37 nM)?
**A.** Its surviving fraction is 1.24.

**Q.** And the surviving fraction (FT3469 [6]; 111.1 nM)?
**A.** The surviving fraction was 1.1.

**Q.** And the surviving fraction (FT3469 [6]; 333.3 nM)?
**A.** The surviving fraction was 1.02.

**Q.** And the surviving fraction (FT3469 [6]; 1000 nM)?
**A.** Its surviving fraction is 0.973.

**Q.** And the surviving fraction (FT3469 [6]; 3000 nM)?
**A.** The surviving fraction was 1.02.

**Q.** And the surviving fraction (E57 [7]; 4.1 nM)?
**A.** The surviving fraction was 1.

**Q.** What about the surviving fraction (E57 [7]; 12.3 nM) of the same molecule?
**A.** Its surviving fraction is 0.954.

**Q.** What about the surviving fraction (E57 [7]; 37 nM) of the same molecule?
**A.** The surviving fraction was 1.05.

**Q.** What about the surviving fraction (E57 [7]; 111.1 nM) of the same molecule?
**A.** Its surviving fraction is 1.02.

**Q.** What about the surviving fraction (E57 [7]; 333.3 nM) of the same molecule?
**A.** Its surviving fraction is 0.957.

**Q.** And the surviving fraction (E57 [7]; 1000 nM)?
**A.** The surviving fraction was 0.983.

**Q.** And the surviving fraction (E57 [7]; 3000 nM)?
**A.** Its surviving fraction is 1.02.

**Q.** What about the phenotypic distance (E34 [8]; 4.1 nM) of the same molecule?
**A.** Its phenotypic distance is 0.551.

**Q.** And the phenotypic distance (E34 [8]; 12.3 nM)?
**A.** Its phenotypic distance is 1.11.

**Q.** And the phenotypic distance (E34 [8]; 37 nM)?
**A.** Its phenotypic distance is 1.1.

**Q.** And the phenotypic distance (E34 [8]; 111.1 nM)?
**A.** Its phenotypic distance is 1.17.

**Q.** And the phenotypic distance (E34 [8]; 333.3 nM)?
**A.** Its phenotypic distance is 0.856.

**Q.** And the phenotypic distance (E34 [8]; 1000 nM)?
**A.** Its phenotypic distance is 0.796.

**Q.** What about the phenotypic distance (E34 [8]; 3000 nM) of the same molecule?
**A.** The phenotypic distance was 1.7.

**Q.** What about the phenotypic distance (E13 [9]; 4.1 nM) of the same molecule?
**A.** The phenotypic distance was 0.768.

**Q.** And the phenotypic distance (E13 [9]; 12.3 nM)?
**A.** The phenotypic distance was 0.554.

**Q.** And the phenotypic distance (E13 [9]; 37 nM)?
**A.** The phenotypic distance was 0.708.

**Q.** What about the phenotypic distance (E13 [9]; 111.1 nM) of the same molecule?
**A.** The phenotypic distance was 0.428.

**Q.** And the phenotypic distance (E13 [9]; 333.3 nM)?
**A.** Its phenotypic distance is 0.915.

**Q.** What about the phenotypic distance (E13 [9]; 1000 nM) of the same molecule?
**A.** The phenotypic distance was 1.17.

**Q.** What about the phenotypic distance (E13 [9]; 3000 nM) of the same molecule?
**A.** The phenotypic distance was 3.08.

**Q.** What about the phenotypic distance (E28 [10]; 4.1 nM) of the same molecule?
**A.** Its phenotypic distance is 0.829.

**Q.** What about the phenotypic distance (E28 [10]; 12.3 nM) of the same molecule?
**A.** The phenotypic distance was 0.874.

**Q.** And the phenotypic distance (E28 [10]; 37 nM)?
**A.** The phenotypic distance was 0.838.

**Q.** And the phenotypic distance (E28 [10]; 111.1 nM)?
**A.** Its phenotypic distance is 0.682.

**Q.** What about the phenotypic distance (E28 [10]; 333.3 nM) of the same molecule?
**A.** Its phenotypic distance is 0.846.

**Q.** What about the phenotypic distance (E28 [10]; 1000 nM) of the same molecule?
**A.** The phenotypic distance was 0.746.

**Q.** And the phenotypic distance (E28 [10]; 3000 nM)?
**A.** The phenotypic distance was 1.38.

**Q.** And the phenotypic distance (E21 [11]; 4.1 nM)?
**A.** The phenotypic distance was 0.885.

**Q.** What about the phenotypic distance (E21 [11]; 12.3 nM) of the same molecule?
**A.** The phenotypic distance was 0.483.

**Q.** What about the phenotypic distance (E21 [11]; 37 nM) of the same molecule?
**A.** Its phenotypic distance is 0.732.

**Q.** And the phenotypic distance (E21 [11]; 111.1 nM)?
**A.** The phenotypic distance was 0.989.

**Q.** What about the phenotypic distance (E21 [11]; 333.3 nM) of the same molecule?
**A.** The phenotypic distance was 1.11.

**Q.** What about the phenotypic distance (E21 [11]; 1000 nM) of the same molecule?
**A.** The phenotypic distance was 1.17.

**Q.** And the phenotypic distance (E21 [11]; 3000 nM)?
**A.** Its phenotypic distance is 1.97.

**Q.** And the phenotypic distance (E31 [12]; 4.1 nM)?
**A.** The phenotypic distance was 0.639.

**Q.** What about the phenotypic distance (E31 [12]; 12.3 nM) of the same molecule?
**A.** The phenotypic distance was 0.653.

**Q.** And the phenotypic distance (E31 [12]; 37 nM)?
**A.** The phenotypic distance was 0.833.

**Q.** What about the phenotypic distance (E31 [12]; 111.1 nM) of the same molecule?
**A.** The phenotypic distance was 0.88.

**Q.** And the phenotypic distance (E31 [12]; 333.3 nM)?
**A.** The phenotypic distance was 0.504.

**Q.** What about the phenotypic distance (E31 [12]; 1000 nM) of the same molecule?
**A.** The phenotypic distance was 1.35.

**Q.** And the phenotypic distance (E31 [12]; 3000 nM)?
**A.** Its phenotypic distance is 2.01.

**Q.** What about the phenotypic distance (FT3469 [13]; 4.1 nM) of the same molecule?
**A.** Its phenotypic distance is 1.11.

**Q.** And the phenotypic distance (FT3469 [13]; 12.3 nM)?
**A.** Its phenotypic distance is 0.614.

**Q.** What about the phenotypic distance (FT3469 [13]; 37 nM) of the same molecule?
**A.** Its phenotypic distance is 1.09.

**Q.** What about the phenotypic distance (FT3469 [13]; 111.1 nM) of the same molecule?
**A.** The phenotypic distance was 0.588.

**Q.** What about the phenotypic distance (FT3469 [13]; 333.3 nM) of the same molecule?
**A.** Its phenotypic distance is 0.893.

**Q.** What about the phenotypic distance (FT3469 [13]; 1000 nM) of the same molecule?
**A.** Its phenotypic distance is 0.525.

**Q.** What about the phenotypic distance (FT3469 [13]; 3000 nM) of the same molecule?
**A.** Its phenotypic distance is 1.13.

**Q.** And the phenotypic distance (E57 [14]; 4.1 nM)?
**A.** The phenotypic distance was 0.935.

**Q.** What about the phenotypic distance (E57 [14]; 12.3 nM) of the same molecule?
**A.** Its phenotypic distance is 0.283.

**Q.** What about the phenotypic distance (E57 [14]; 37 nM) of the same molecule?
**A.** The phenotypic distance was 0.726.

**Q.** What about the phenotypic distance (E57 [14]; 111.1 nM) of the same molecule?
**A.** Its phenotypic distance is 0.552.

**Q.** And the phenotypic distance (E57 [14]; 333.3 nM)?
**A.** The phenotypic distance was 0.896.

**Q.** And the phenotypic distance (E57 [14]; 1000 nM)?
**A.** The phenotypic distance was 1.08.

**Q.** What about the phenotypic distance (E57 [14]; 3000 nM) of the same molecule?
**A.** Its phenotypic distance is 2.02.
